In data set [1] the target is T1, Ecdysone receptor (Spodoptera littoralis) (UniProt E3UJZ5).
T1 sequence (whole entry): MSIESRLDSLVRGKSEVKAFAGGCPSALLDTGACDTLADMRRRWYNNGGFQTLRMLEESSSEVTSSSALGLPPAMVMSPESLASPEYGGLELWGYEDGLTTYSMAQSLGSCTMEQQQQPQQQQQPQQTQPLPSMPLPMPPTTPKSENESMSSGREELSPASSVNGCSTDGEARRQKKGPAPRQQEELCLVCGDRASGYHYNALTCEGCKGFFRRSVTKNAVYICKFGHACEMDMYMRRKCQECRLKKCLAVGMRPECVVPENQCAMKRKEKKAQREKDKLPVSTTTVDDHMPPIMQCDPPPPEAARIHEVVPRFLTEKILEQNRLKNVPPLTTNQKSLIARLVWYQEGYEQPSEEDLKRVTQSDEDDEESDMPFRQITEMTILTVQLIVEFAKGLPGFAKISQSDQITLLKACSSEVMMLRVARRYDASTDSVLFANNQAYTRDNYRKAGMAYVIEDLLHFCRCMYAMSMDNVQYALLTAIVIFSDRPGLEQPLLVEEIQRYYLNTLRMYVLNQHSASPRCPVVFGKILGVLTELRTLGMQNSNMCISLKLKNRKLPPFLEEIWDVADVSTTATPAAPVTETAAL
The data set is described as follows: Agonist activity at ecdysone receptor in Spodoptera littoralis Sl2 cells after 24 hr by luciferase reporter gene assay relative to tebufenozide. Format: cell-based. In general terms: A reporter such as luciferase makes a cellular process visible.

In data set [2] the target is T2, Ecdysone receptor (Spodoptera littoralis, UniProt E3UJZ5).
T2 sequence (E3UJZ5 whole entry): T1 sequence (whole entry)
The data set can be described thus: Antagonist activity at ecdysone receptor in Spodoptera littoralis Sl2 cells assessed as tebufenozide-induced effect treated 24 hr before tebufenozide challenge measured after 24 hr by luciferase reporter gene assay. Format: cell-based.

Data set [3] is described as follows: Ratio of IC50 for ecdysone receptor in Bombyx mori Bm5 cells to LC50 for Bombyx mori Bm5 cells.
Data set [4] can be described thus: Ratio of IC50 for ecdysone receptor in Spodoptera littoralis Sl2 cells to LC50 for Spodoptera littoralis Sl2 cells.
Data set [5] concerns the target T3, Ecdysone receptor (Bombyx mori, UniProt P49881).
T3 sequence (P49881 whole entry): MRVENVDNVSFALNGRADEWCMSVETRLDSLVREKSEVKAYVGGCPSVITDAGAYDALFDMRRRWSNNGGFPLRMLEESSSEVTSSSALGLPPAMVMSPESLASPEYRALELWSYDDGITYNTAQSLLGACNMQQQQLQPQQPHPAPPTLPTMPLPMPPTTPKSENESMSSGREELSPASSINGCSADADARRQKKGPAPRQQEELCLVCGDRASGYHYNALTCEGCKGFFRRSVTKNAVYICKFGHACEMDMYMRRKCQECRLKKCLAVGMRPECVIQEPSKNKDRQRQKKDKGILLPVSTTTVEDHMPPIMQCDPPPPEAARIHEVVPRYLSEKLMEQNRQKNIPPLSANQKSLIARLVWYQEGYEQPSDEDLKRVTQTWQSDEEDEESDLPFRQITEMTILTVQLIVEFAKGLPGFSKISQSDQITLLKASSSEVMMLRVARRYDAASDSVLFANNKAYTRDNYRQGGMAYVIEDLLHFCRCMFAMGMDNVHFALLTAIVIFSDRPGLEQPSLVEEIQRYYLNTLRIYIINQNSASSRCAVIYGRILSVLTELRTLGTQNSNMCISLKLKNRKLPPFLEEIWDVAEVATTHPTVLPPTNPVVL
The data set can be described thus: Agonist activity at ecdysone receptor in Bombyx mori Bm5 cells after 24 hr by luciferase reporter gene assay. Format: cell-based.

The test system of data set [6] is Spodoptera littoralis. The data set is described as follows: Cytotoxicity against Spodoptera littoralis Sl2 cells assessed as cell viability after 24 hr by MTT assay. Conditions: read-out: pLC50 (converted). On the technique in general: Formazan colour is commonly taken as a measure of viable cells.
The target in data set [7] is T3, Ecdysone receptor. The data set is described as follows: Antagonist activity at ecdysone receptor in Bombyx mori Bm5 cells assessed as tebufenozide-induced effect treated 24 hr before tebufenozide challenge measured after 24 hr by luciferase reporter gene assay. Format: cell-based.
Data set [8] can be described thus: Cytotoxicity against Bombyx mori Bm5 cells assessed as cell viability after 24 hr by MTT assay. Format: cell-based. To be noted: read-out: pLC50 (converted).
Data set [9] addresses T4, Ecdysone receptor (Bombyx mori) (UniProt P49881).
T4 sequence (whole entry): T3 sequence (P49881 whole entry)
The data set is described as follows: Agonist activity at ecdysone receptor in Bombyx mori Bm5 cells after 24 hr by luciferase reporter gene assay relative to tebufenozide. Format: cell-based.

The target of data set [10] is T2, Ecdysone receptor. The data set is described as follows: Agonist activity at ecdysone receptor in Spodoptera littoralis Sl2 cells after 24 hr by luciferase reporter gene assay. Format: cell-based.
Data set [11] can be described thus: Ratio of LD50 for Spodoptera littoralis to LD50 for Bombyx mori. Format: functional.
In data set [12] the test system is Spodoptera littoralis. The data set can be described thus: Larvicidal activity against Spodoptera littoralis assessed as mortality applied topically after 1 week. Format: functional.
A short description of data set [13]: Selectivity ratio of EC50 for ecdysone receptor in Bombyx mori Bm5 cells to EC50 for ecdysone receptor in Spodoptera littoralis Sl2 cells. Format: cell-based.
The next data set deals with Bombyx mori. The data set is described as follows: Larvicidal activity against Bombyx mori assessed as mortality applied topically after 1 week. Format: functional.

Some results are limits rather than exact numbers.

The text below walks through data of ChEMBL document CHEMBL3046747, “Assessment of species specificity of moulting accelerating compounds in Lepidoptera: comparison of activity between Bombyx mori and Spodoptera littoralis by in vitro reporter and in vivo toxicity assays” (Pest Manag Sci, 2010).

For the compound `Cc1cc(C)cc(C(=O)C2(NC(=O)C(F)(F)F)CCCCC2)c1`, the Efficacy in [1] was 17%; in data set [9] it was 6%. The IC50 at Ecdysone receptor [2] is 16.2 µM; on Ecdysone receptor [7], 67.6 µM. Besides, the Ratio in data set [3] is 0.29; in data set [4], less than 0.04. In addition, the pEC50 on Ecdysone receptor [5] and on Ecdysone receptor [10] (sl2) was greater than 4 each time. The results for the CC50 at 24 h (in the data set with Spodoptera littoralis [6]; in data set [8]) were greater than 501 µM and 234 µM, respectively.

As for `Cc1ccc(NC2CCN(C(=O)c3ccc(Cl)cc3)c3ccccc32)cc1` (stereo unspecified), the figures for the Ratio in data set [3] and in data set [4] were 0.42 and 0.12, respectively. The CC50 at 24 h is 427 µM in the data set on Spodoptera littoralis [6] and 21.4 µM in data set [8]. Further, the IC50 at Ecdysone receptor [7] was 8.91 µM.

Turning to `Cc1ccc(NC2CC(C)N(C(=O)c3ccc(C(C)(C)C)cc3)c3ccc(C)cc32)cc1` (stereo unspecified), the values for the IC50 on Ecdysone receptor [2] and on Ecdysone receptor [7] were greater than 25.1 µM and 24 µM, respectively. Besides, the Ratio in data set [3] was determined as 2.09. Besides, the figures for the CC50 at 24 h (with Spodoptera littoralis [6]; in data set [8]) were greater than 25.1 µM and 11.5 µM, respectively.

As for `CC1CC(Nc2ccc(F)cc2)c2cc(F)ccc2N1C(=O)c1ccc(Cl)cc1` (stereo unspecified), the Efficacy in data set [1] amounted to 64%; in [9], 59%. In addition, the EC50 at Ecdysone receptor [5] (read-out: EC50) came out at 55 µM; at Ecdysone receptor [10] (read-out: EC50) it was 60 µM. Besides, the CC50 at 24 h in the data set with Spodoptera littoralis [6] was greater than 501 µM; in data set [8] it was 162 µM.

For `Cc1ccc(N(C(=O)c2ccc(Cl)cc2)C2CC(C)N(C(=O)c3ccc(Cl)cc3)c3ccc(C)cc32)cc1` (stereo unspecified), the IC50 at Ecdysone receptor [2] was 12.9 µM; at Ecdysone receptor [7] it was 13.5 µM. Further, the Ratio in data set [3] is 1.91; in [4] it was less than 0.85. The values for the CC50 at 24 h (with Spodoptera littoralis [6]; in data set [8]) were greater than 15.1 µM and 7.08 µM, respectively.

For `CC1CCc2ccccc2N1C(=O)c1ccc(Cl)cc1` (stereo unspecified), the IC50 on Ecdysone receptor [2] was 55 µM; on Ecdysone receptor [7], 47.9 µM. For the same compound, the Ratio in data set [3] was 0.69; in data set [4] it was 0.53. Moreover, the CC50 at 24 h is 102 µM with Spodoptera littoralis [6] and 69.2 µM in data set [8].

In the case of `Cc1ccc(NC2CC(C)N(C(=O)c3ccc(Cl)cc3)c3ccc(C)cc32)cc1` (stereo unspecified), the half-maximal inhibitory concentration (IC50) on Ecdysone receptor [2] was 79.4 µM; on Ecdysone receptor [7], 14.8 µM. Also, the Ratio was 0.43 in data set [3] and less than 0.16 in data set [4]. The CC50 at 24 h was greater than 501 µM in the data set on Spodoptera littoralis [6] and 34.7 µM in data set [8].

Turning to `Cc1ccc(NC2CC(C)N(C(=O)c3ccc(C)cc3)c3ccc(C)cc32)cc1` (stereo unspecified), the 50% inhibitory concentration (IC50) at Ecdysone receptor [2] is 74.1 µM; at Ecdysone receptor [7] it was 26.9 µM. Also, the Ratio in [3] is 0.89; in data set [4] it was less than 0.15. The CC50 at 24 h in the data set with Spodoptera littoralis [6] is greater than 501 µM; in data set [8], 30.2 µM.

On to `Cc1cc(C)cc(C(=O)N(NC(=O)c2ccc3c(c2C)CCCO3)C(C)(C)C)c1` [CHROMAFENOZIDE], for which the Ratio in data set [11] was 1.12. The Efficacy was found to be 103% in data set [1] and 98% in [9]. Further, the EC50 at Ecdysone receptor [5] (read-out: pEC50 (converted)) was 0.001 µM; at Ecdysone receptor [10] (read-out: pEC50 (converted)), 0.00263 µM. In addition, the results for the pLD50 with Spodoptera littoralis [12] and in the data set with Bombyx mori were 7.53 and 7.55, respectively. In data set [13], the Ratio EC50 was found to be 0.38.

In the case of `CCc1ccc(C(=O)NN(C(=O)c2cc(C)cc(C)c2)C(C)(C)C)cc1` [TEBUFENOZIDE], the Ratio in [11] stood at 10.5. In addition, the Efficacy in data set [1] and in [9] was 100% throughout. Also, the results for the EC50 on Ecdysone receptor [5] (read-out: pEC50 (converted)) and at Ecdysone receptor [10] (read-out: pEC50 (converted)) were 0.00112 µM and 0.00219 µM, respectively. The pLD50 in the data set on Spodoptera littoralis [12] is listed as 6.58; in the data set with Bombyx mori, 7.6. Further, the Ratio EC50 in data set [13] stood at 0.51.

`Cc1ccc(NC2CCN(C(=O)c3ccc(Cl)cc3)CC2)cc1`: the IC50 at Ecdysone receptor [2] was 15.1 µM; on Ecdysone receptor [7], 2.24 µM. For the same compound, the Ratio in [4] is on record as 0.55. The CC50 at 24 h is 27.5 µM in the data set on Spodoptera littoralis [6] and less than 5.01 µM in data set [8].

A word on the IC50: it is the concentration that gives 50% inhibition. In general, pEC50 refers to the negative decadic logarithm of the EC50, by convention in mol/L.
